≈ marks a conversion by molar mass, not a printed value. Like-named read-outs stand apart in the source and are kept apart here.
Experiments:
glioma U251 cells [1] = test: SRB assay, proliferation of glioma U251 cells; assay type: cell-based; details: Homo sapiens, U-251, 72 h, read-out: IC50 inhibiting the proliferation of cells, U251
Experimental: (§1) The compounds 1 and 2 were assayed for their activities inhibiting the proliferation of glioma C6, U251, U87-MG, and SHG-44 cells using the sulforhodamine B (SRB) assay. The SRB assay is a method that measures total cellular protein content for evaluating the activity of tested compounds against the proliferation of tumor cells. Doxorubicin (DOX) was used as a positive control. Glioma cells were treated with tested compounds for 72 h at different concentrations. […] N-acetyl-N-demethylmayamycin (1) and streptoanthraquinone A (2) were also assayed for their activity against normal human astrocytes (HA). The initial assay was conducted on the concentrations from 0.35 to 7.0 μM for 1 and on those from 1.65 to 16.5 μM for 2. The cell viability of HA cells from each tested concentration of both compounds was 100%.
(§2) Human glioma U251 and rat glioma C6 cells were cultured in DMEM (Dulbecco’s Modified Eagle Medium, Gibco, Thermo Fisher Scientific Inc., Waltham, MA, USA) with 10% FBS (Fetal Bovine Serum, PAA Laboratories Inc., Dartmouth, MA, USA), human glioma SHG-44 in RPMI-1640 Medium (Roswell Park Memorial Institution 1640 Medium, Gibco, Thermo Fisher Scientific Inc., Waltham, MA, USA), human glioma U87-MG cells in MEM (Minimum Essential Medium, Gibco), and normal human astrocytes (HA) in AM (Astrocyte Medium, ScienCell, Cat. No. 1801). All cells were incubated at 37 °C in a humidified incubator with 5% CO2. Cells after the third generation were used for experiment.
(§3) The SRB assay was used to evaluate the activity of the isolated compounds in inhibiting the proliferation of glioma U87-MG, U251, SHG-44, and C6 cells. Doxorubicin (DOX) was used as the positive control. Briefly, glioma cells were plated in a 96-well plate and then treated with different concentrations of tested compound after cells adhesion for 24 h. […] After dried, dye was dissolved in a 10 mM Tris buffer and measured at 515 nm on a microplate reader (BioTech, Winooski, VT, USA).

glioma U87-MG cells = test: SRB assay, proliferation of glioma U87-MG cells; assay type: cell-based; details: Homo sapiens, U-87 MG, 72 h, read-out: IC50 inhibiting the proliferation of cells, U87-MG
Experimental: as §1, §2, §3

glioma SHG-44 cells = test: SRB assay, proliferation of glioma SHG-44 cells; assay type: cell-based; details: Homo sapiens, 72 h, read-out: IC50 inhibiting the proliferation of cells, SHG-44
Experimental: as §1, §2, §3

glioma C6 cells = test: SRB assay, proliferation of glioma C6 cells; assay type: cell-based; details: Rattus norvegicus, 72 h, read-out: IC50 inhibiting the proliferation of cells, C6
Experimental: as §1, §2, §3

[2] = Activity against normal human astrocytes (HA); assay type: cell-based; details: human, normal human astrocytes (HA), initial assay, read-out: Cell viability of HA cells
Experimental: as §1, §2

[3] = test system: normal human astrocytes (HA); test: Activity against normal human astrocytes (HA); assay type: cell-based; details: Homo sapiens, Astrocyte; HA cells, second assay in higher concentrations
Experimental: as §1, §2

glioma U251 cells [4] = test: Apoptosis in glioma U251 cells, flow cytometry with Annexin V-FITC/PI double staining; assay type: cell-based, human; details: 36 h, control 3.58%
Experimental: N-acetyl-N-demethylmayamycin (1) and streptoanthraquinone A (2) were further tested for their ability to induce apoptosis in glioma U251 cells by flow cytometry using Annexin V-FITC/PI double staining.
Figure 6 N-acetyl-N-demethylmayamycin (1) and streptoanthraquinone A (2) induced apoptosis in the glioma U251 cells quantified by cytometric analysis. U251 cells were treated with 1 (0.7 μM) or 2 (3.3 μM) for 36 h and then stained with Annexin-V FITC and PI double staining (B1: necrotic cells; B2: late apoptotic cells; B3: normal glioma cells; B4: early apoptotic cells). TEXT PRINTED IN THE PICTURE: 1: U251: B1: 2.87% (0.7 μM); U251: B2: 31.39% (0.7 μM); U251: B3: 54.79% (0.7 μM); U251: B4: 10.95% (0.7 μM) | 2: U251: B1: 3.00% (3.3 μM); U251: B2: 29.85% (3.3 μM); U251: B3: 56.75% (3.3 μM); U251: B4: 10.40% (3.3 μM) DOUBTS OF THE COPYIST ABOUT THIS PICTURE: 1, B3: 54.79% is partly covered by plot points, digits not certain / 2, B3: 56.75% is partly covered by plot points, digits not certain / The CON (untreated control) plot prints B1 0.28%, B2 2.17%, B3 96.14% (partly covered by plot points, 96.14 or 96.44), B4 1.41%; left out of lines because it is not a substance

[5] = test system: Escherichia coli ATCC 25922; test: Antimicrobial assay, micro broth dilution, E. coli; assay type: cell-based; details: ATCC 25922, micro broth dilution
Experimental: (§4) Compounds 1 and 2 were also determined for their activities against methicillin-resistant Staphylococcus aureus ATCC 43300 and Escherichia coli ATCC 25922.
(§5) The micro broth dilution method as described in the previous report was used to determine the antimicrobial activity of the isolated compounds against the methicillin-resistant Staphylococcus aureus ATCC 43300 and Escherichia coli ATCC 25922. Norfloxacin, a broad-spectrum antibiotic against both Gram-positive and Gram-negative bacteria, was used as the positive control.

[6] = test system: glioma C6, U251, U87-MG, and SHG-44 cells; test: SRB assay, four glioma cell lines (summary ranges); assay type: cell-based; details: 72 h, read-out: IC50 range over four tested glioma cell lines
Experimental: as §1
The SRB assay was used to evaluate the activity of the isolated compounds in inhibiting the proliferation of glioma U87-MG, U251, SHG-44, and C6 cells. Doxorubicin (DOX) was used as the positive control. Briefly, glioma cells were plated in a 96-well plate and then treated with different concentrations of tested compound after cells adhesion for 24 h. After 72 h of the treatment, cells were fixed with 50 μL of a 10% cold TCA solution for 1 h at 4 °C, washed with distilled water five times, and then dried at room temperature. The dried cells were stained with 50 μL of 0.4% SRB for ten minutes and rinsed with a 1% acetic acid solution five times. After dried, dye was dissolved in a 10 mM Tris buffer and measured at 515 nm on a microplate reader (BioTech, Winooski, VT, USA).

[7] = test system: methicillin-resistant Staphylococcus aureus ATCC 43300; test: Antimicrobial assay, micro broth dilution, MRSA; assay type: cell-based; details: ATCC43300, ATCC 43300, micro broth dilution, read-out: MIC, growth of methicillin-resistant S. aureus
Experimental: as §4, §5

IC50 (glioma U251 cells [1]) | IC50 (glioma U87-MG cells) | IC50 (glioma SHG-44 cells) | IC50 (glioma C6 cells) | MIC, growth of E. coli [5] | IC50 [6] | MIC [7] | MIC ([5]; Escherichia coli, ATCC25922, read-out: MIC, growth of E. coli) | Compound | viability ([2]; each tested concentration from 1.65 to 16.5 μM) | IC50 [3] | Increase of total apoptotic cells (early and late) compared to the control (glioma U251 cells [4]; U251, 3.3 μM) | viability ([2]; each tested concentration from 0.35 to 7.0 μM) | Increase of total apoptotic cells (early and late) compared to the control (glioma U251 cells [4]; U251, 0.7 μM)
3.3 ± 0.3 µM | 4.6 ± 0.3 µM | 6.5 ± 1.1 µM | 7.3 ± 1.4 µM | no activity | 3.3 to 7.3 µM | – | – | CC(=O)OC1c2c3c(c(O)c4c2C(Cc2c(O)cc(C)cc2-4)OC1C)C(=O)c1cccc(O)c1C3=O (centres unmarked) [Compound 2, streptoanthraquinone A] | 100% | > 100 µM | 36.67% | – | –
0.7 ± 0.2 µM | 1.4 ± 0.1 µM | 3.9 ± 0.4 µM | 0.5 ± 0.1 µM | no activity | 0.5 to 3.9 µM | 20 µM (≈ 9.83 µg/mL) | – | CC(=O)NC1CC(c2c(O)c3c(c4c(O)cc(C)cc24)C(=O)c2cccc(O)c2C3=O)OC(C)C1O (centres unmarked) [Compound 1, N-acetyl-N-demethylmayamycin] | – | 25 ± 1.3 µM | – | 100% | 38.76%
6.7 ± 1.1 µM | 0.9 ± 0.1 µM | 9 ± 0.8 µM | 1 ± 0.1 µM | – | 0.9 to 9 µM | – | – | COc1cccc2c1C(=O)c1c(O)c3c(c(O)c1C2=O)C[C@@](O)(C(=O)CO)C[C@@H]3O[C@H]1C[C@H](N)[C@H](O)[C@H](C)O1 [Doxorubicin (DOX), Doxorubicin, reference compound] | – | – | – | – | –
– | – | – | – | – | – | 62.6 µM (≈ 20 µg/mL) | 31.3 µM (≈ 10 µg/mL) | CCn1cc(C(=O)O)c(=O)c2cc(F)c(N3CCNCC3)cc21 [norfloxacin, reference compound] | – | – | – | – | –
